Some results are limits rather than exact numbers.

In the test the target is T1, active BTK enzyme (Upstate 14-552) (Homo sapiens, UniProt Q06187).
T1 construct: purchased Upstate 14-552
T1 sequence (Q06187 whole entry): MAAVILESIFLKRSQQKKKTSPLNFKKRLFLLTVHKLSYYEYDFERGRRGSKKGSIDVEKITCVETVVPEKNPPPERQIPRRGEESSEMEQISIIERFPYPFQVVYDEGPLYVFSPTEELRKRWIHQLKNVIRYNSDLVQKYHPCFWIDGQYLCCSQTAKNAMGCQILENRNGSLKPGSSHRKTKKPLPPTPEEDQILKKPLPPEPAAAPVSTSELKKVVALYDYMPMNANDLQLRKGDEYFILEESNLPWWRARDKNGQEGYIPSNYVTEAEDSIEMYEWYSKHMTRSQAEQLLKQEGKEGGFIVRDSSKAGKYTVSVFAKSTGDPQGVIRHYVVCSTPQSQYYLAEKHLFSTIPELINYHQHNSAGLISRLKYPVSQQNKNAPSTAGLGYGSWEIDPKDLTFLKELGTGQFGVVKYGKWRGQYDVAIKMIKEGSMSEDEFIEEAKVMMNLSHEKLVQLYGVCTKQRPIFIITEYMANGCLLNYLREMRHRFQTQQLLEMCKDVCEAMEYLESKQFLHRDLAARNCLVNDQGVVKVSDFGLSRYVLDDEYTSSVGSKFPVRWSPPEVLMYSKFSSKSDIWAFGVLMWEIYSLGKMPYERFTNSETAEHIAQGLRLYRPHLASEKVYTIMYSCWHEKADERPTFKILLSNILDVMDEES
Nature of the test: In Vitro BTK Kinase Assay: Btk-PolyGAT-LS Assay. The format is biochemical. As to conditions: ATP 10 μM, polyGAT 100 nM, BTK 0.25 nM, 30 minutes, TRF readout. As to the method: In Vitro BTK Kinase Assay: Btk-PolyGAT-LS Assay The purpose of the BTK in vitro assay is to determine compound potency against BTK through the measurement of IC50. Compound inhibition is measured after monitoring the amount of phosphorylation of a fluorescein-labeled polyGAT peptide (Invitrogen PV3611) in the presence of active BTK enzyme (Upstate 14-552), ATP, and inhibitor. The BTK kinase reaction was done in a black 96 well plate (costar 3694). For a typical assay, a 24 μL aliquot of a ATP/peptide master mix (final concentration; ATP 10 μM, polyGAT 100 nM) in kinase buffer (10 mM Tris-HCl pH 7.5, 10 mM MgCl2, 200 μM […], 5 mM DTT, 0.01% Triton X-100, and 0.2 mg/ml casein) is added to each well. Next, […] of a 4-fold, 40× compound titration in 100% DMSO solvent is added, followed by adding 15 μL of BTK enzyme mix in 1× kinase buffer (with a final concentration of 0.25 nM). The assay is incubated for 30 minutes before being stopped with 28 μL of a 50 mM EDTA solution. Aliquots (5 μL) of the kinase reaction are transferred to a low volume white 384 well plate (Coming 3674), and 5 μL of a 2× detection buffer (Invitrogen PV3574, with 4 nM Tb-PY20 antibody, Invitrogen PV3552) is added. The plate is covered and incubated for 45 minutes at room temperature. Time resolved fluorescence (TRF) on Molecular Devices M5 (332 nm excitation; 488 nm emission; 518 nm fluorescein emission) is measured. IC50 values are calculated using a four parameter fit with 100% enzyme activity determined from the DMSO control and 0% activity from the EDTA control.
In turn, `C=CC(=O)N(C)C1CCN(c2cnccc2-c2ccc(CNC(=O)c3cn(C(C)(C)C)nn3)c(C)c2)C1=O` (centres unmarked) [Example 11, 1-(tert-butyl)-N-(2-methyl-4-(3-(3-(N-methylacrylamido)-2-oxopyrrolidin-1-yl)pyridin-4-yl)benzyl)-1H-1,2,3-triazole-4-carboxamide] had an IC50 of over 10 nM.
In turn, `CC#CC(=O)N1CCN(c2cnccc2-c2ccc(CNC(=O)c3noc(C(C)(C)C)n3)c(C)c2)CC1` [Example 62, N-(4-(3-(4-(but-2-ynoyl)piperazin-1-yl)pyridin-4-yl)-2-methylbenzyl)-5-(tert-butyl)-1,2,4-oxadiazole-3-carboxamide] came in with a 50% inhibitory concentration (IC50) of at most 1 nM.
Molecule `CN(C)C/C=C/C(=O)N1CCN(c2cnccc2-c2ccc(CNC(=O)c3noc(C4(C)CC4)n3)c(C(F)F)c2)CC1` [Example 88, (E)-N-(2-(difluoromethyl)-4-(3-(4-(4-(dimethylamino)but-2-enoyl)piperazin-1-yl)pyridin-4-yl)benzyl)-5-(1-methylcyclopropyl)-1,2,4-oxadiazole-3-carboxamide] returned an IC50 of 1 to 10 nM.
Consider `C=CC(=O)N(C)CC1CCCN(c2cnccc2-c2ccc(CNC(=O)c3noc(C(C)(C)C)n3)c(C)c2)C1` (centres unmarked) [Example 21, 5-(tert-butyl)-N-(2-methyl-4-(3-(3-((N-methylacrylamido)methyl)piperidin-1-yl)pyridin-4-yl)benzyl)-1,2,4-oxadiazole-3-carboxamide], for which the IC50 lay within 1 to 10 nM.
Next, `C=CC(=O)N1CC2(C1)CN(c1cnccc1-c1ccc(CNC(=O)c3noc(C(C)(C)C)n3)c(C)c1)C2` [Example 6, N-(4-(3-(6-acryloyl-2,6-diazaspiro[3.3]heptan-2-yl)pyridin-4-yl)-2-methylbenzyl)-5-(tert-butyl)-1,2,4-oxadiazole-3-carboxamide]: over 10 nM; `C=CC(=O)N1CCC[C@@H](c2cnccc2-c2ccc(CNC(=O)c3cn(C(C)(C)C)nn3)c(C)c2)C1` (single isomer, unassigned) [Example 25]: over 10 nM; `C=CC(=O)N(C)C1CCN(c2cncnc2-c2ccc(CNC(=O)c3cn(C(C)(C)C)nn3)c(C)c2)C1` (centres unmarked) [Example 9, 1-(tert-butyl)-N-(2-methyl-4-(5-(3-(N-methylacrylamido)pyrrolidin-1-yl)pyrimidin-4-yl)benzyl)-1H-1,2,3-triazole-4-carboxamide]: at most 1 nM.
As to `CN(C)C/C=C/C(=O)N1CCN(c2cnccc2-c2ccc(CNC(=O)c3nc(C(C)(C)C)no3)c(C(F)F)c2)CC1` [Example 89, (E)-3-(tert-butyl)-N-(2-(difluoromethyl)-4-(3-(4-(4-(dimethylamino)but-2-enoyl)piperazin-1-yl)pyridin-4-yl)benzyl)-1,2,4-oxadiazole-5-carboxamide], the IC50 is at most 1 nM.
`C=CC(=O)N1CCN(c2cncnc2-c2ccc(CNC(=O)c3nnn(C(C)(C)C)n3)c(C)c2)CC1` [Example 79, N-(4-(5-(4-acryloylpiperazin-1-yl)pyrimidin-4-yl)-2-methylbenzyl)-2-(tert-butyl)-2H-tetrazole-5-carboxamide]: the IC50 was at most 1 nM.
On to `CN(C)C/C=C/C(=O)N1CCN(c2cnccc2-c2ccc(CNC(=O)c3noc(C4(C)CC4)n3)c(C(F)(F)F)c2)CC1` [Example 91, (E)-N-(4-(3-(4-(4-(dimethylamino)but-2-enoyl)piperazin-1-yl)pyridin-4-yl)-2-(trifluoromethyl)benzyl)-5-(1-methylcyclopropyl)-1,2,4-oxadiazole-3-carboxamide], for which the IC50 is at most 1 nM.
The molecule `C=CC(=O)N(C)C1CCCN(c2cnccc2-c2ccc(CNC(=O)c3cnc(C(C)(C)C)o3)c(C)c2)C1` (centres unmarked) [Example 38, 2-(tert-butyl)-N-(2-methyl-4-(3-(3-(N-methylacrylamido)piperidin-1-yl)pyridin-4-yl)benzyl)oxazole-5-carboxamide] registered a half-maximal inhibitory concentration (IC50) of at most 1 nM.
`C=CC(=O)N1CCC[C@H](c2cnccc2-c2ccc(CNC(=O)c3noc(C4(C)CC4)n3)c(C)c2)C1` (single isomer, unassigned) [Example 27] registered a half-maximal inhibitory concentration (IC50) of over 10 nM.
Turning to `C=C(F)C(=O)N1CCN(c2cncnc2-c2ccc(CNC(=O)c3noc(C(C)(C)C)n3)c(C)c2)CC1` [Example 81, 5-(tert-butyl)-N-(4-(5-(4-(2-fluoroacryloyl)piperazin-1-yl)pyrimidin-4-yl)-2-methylbenzyl)-1,2,4-oxadiazole-3-carboxamide], the IC50 fell in the range of 1 to 10 nM.
As to `C=CC(=O)N(C)C1CCCN(c2cnccc2-c2ccc(CNC(=O)c3cn(C(C)(C)C)nn3)c(C)c2)C1=O` (centres unmarked) [Example 10, 1-(tert-butyl)-N-(2-methyl-4-(3-(3-(N-methylacrylamido)-2-oxopiperidin-1-yl)pyridin-4-yl)benzyl)-1H-1,2,3-triazole-4-carboxamide], the IC50 is over 10 nM.
Molecule `Cc1cc(-c2ccncc2N2CCN(C(=O)C3CO3)CC2)ccc1CNC(=O)c1noc(C(C)(C)C)n1` (centres unmarked) [Example 59, 5-(tert-butyl)-N-(2-methyl-4-(3-(4-(oxirane-2-carbonyl)piperazin-1-yl)pyridin-4-yl)benzyl)-1,2,4-oxadiazole-3-carboxamide] registered an IC50 of 1 to 10 nM.
Next, `C=CC(=O)N1CCC[C@@H](c2cnccc2-c2ccc(CNC(=O)c3nc(C4(C)CC4)no3)c(C)c2)C1` (single isomer, unassigned) [Example 31]: over 10 nM.
Consider `Cc1cc(-c2c(C#N)cncc2N2CCN(C(=O)/C=C/CN(C)C)CC2)ccc1CNC(=O)c1cc(C(C)(C)C)on1` [Example 70, (E)-5-(tert-butyl)-N-(4-(3-cyano-5-(4-(4-(dimethylamino)but-2-enoyl)piperazin-1-yl)pyridin-4-yl)-2-methylbenzyl)isoxazole-3-carboxamide], for which the IC50 is 1 to 10 nM.
Molecule `C=CC(=O)N1CCC2(CCN(c3cnccc3-c3ccc(CNC(=O)c4cn(C(C)(C)C)nn4)c(C)c3)C2)C1` (centres unmarked) [Example 4, N-(4-(3-(7-acryloyl-2,7-diazaspiro[4.4]nonan-2-yl)pyridin-4-yl)-2-methylbenzyl)-1-(tert-butyl)-1H-1,2,3-triazole-4-carboxamide] showed an IC50 of over 10 nM.
For the molecule `C=CC(=O)N1CC2(CCN(c3cnccc3-c3ccc(CNC(=O)c4noc(C(C)(C)C)n4)c(C)c3)C2)C1` [Example 7, N-(4-(3-(2-acryloyl-2,6-diazaspiro[3.4]octan-6-yl)pyridin-4-yl)-2-methylbenzyl)-5-(tert-butyl)-1,2,4-oxadiazole-3-carboxamide], the IC50 was over 10 nM.
`C=CC(=O)N(C)[C@@H]1CCCN(c2cncc(C#N)c2-c2ccc(CNC(=O)c3cn(C(C)(C)C)nn3)c(C)c2)C1` [Example 48, (R)-1-(tert-butyl)-N-(4-(3-cyano-5-(3-(N-methylacrylamido)piperidin-1-yl)pyridin-4-yl)-2-methylbenzyl)-1H-1,2,3-triazole-4-carboxamide]: the half-inhibitory concentration (IC50) is at most 1 nM.
Next, `C=CC(=O)N1CCC2(CCN(c3cnccc3-c3ccc(CNC(=O)c4cn(C)nc4C(F)F)c(C)c3)C2)C1` (centres unmarked) [Example 5, N-(4-(3-(7-acryloyl-2,7-diazaspiro[4.4]nonan-2-yl)pyridin-4-yl)-2-methylbenzyl)-3-(difluoromethyl)-1-methyl-1H-pyrazole-4-carboxamide]: over 10 nM; `C=CC(=O)N1CCN(c2cncnc2-c2ccc(CNC(=O)c3cn(C(C)(C)C)nn3)c(C)c2)CC1` [Example 50, N-(4-(5-(4-acryloylpiperazin-1-yl)pyrimidin-4-yl)-2-methylbenzyl)-1-(tert-butyl)-1H-1,2,3-triazole-4-carboxamide]: at most 1 nM; `Cc1cc(-c2ccncc2N2CCN(C(=O)C3=CCC3)CC2)ccc1CNC(=O)c1noc(C(C)(C)C)n1` [Example 57, 5-(tert-butyl)-N-(4-(3-(4-(cyclobut-1-ene-1-carbonyl)piperazin-1-yl)pyridin-4-yl)-2-methylbenzyl)-1,2,4-oxadiazole-3-carboxamide]: at most 1 nM.
For the molecule `Cc1cc(-c2c(F)cncc2N2CCN(C(=O)/C=C/CN(C)C)CC2)ccc1CNC(=O)c1noc(C2(C)CC2)n1` [Example 77, (E)-N-(4-(3-(4-(4-(dimethylamino)but-2-enoyl)piperazin-1-yl)-5-fluoropyridin-4-yl)-2-methylbenzyl)-5-(1-methylcyclopropyl)-1,2,4-oxadiazole-3-carboxamide], the IC50 is 1 to 10 nM.
Next, `CN(C)C/C=C/C(=O)N1CCN(c2cnccc2-c2ccc(CNC(=O)c3noc(C(C)(C)C)n3)c(C(F)F)c2)CC1` [Example 87, (E)-5-(tert-butyl)-N-(2-(difluoromethyl)-4-(3-(4-(4-(dimethylamino)but-2-enoyl)piperazin-1-yl)pyridin-4-yl)benzyl)-1,2,4-oxadiazole-3-carboxamide]: at most 1 nM; `Cc1cc(-c2ccncc2N2CCN(C(=O)/C=C/CN(C)C)C(C(F)(F)F)C2)ccc1CNC(=O)c1noc(C(C)(C)C)n1` (centres unmarked) [Example 75, (E)-5-(tert-butyl)-N-(4-(3-(4-(4-(dimethylamino)but-2-enoyl)-3-(trifluoromethyl)piperazin-1-yl)pyridin-4-yl)-2-methylbenzyl)-1,2,4-oxadiazole-3-carboxamide]: at most 1 nM.
